Measured values as given in patent US20090018134A1, “Compounds - 945” (AstraZeneca AB, priority 2007, published 2009).

Target: T1, mTOR (Homo sapiens, UniProt P42345)
T1 construct: FLAG; made in house
Assay: In Vitro mTOR Kinase Assay (Echo), Test (a)(ii)
Assay type: biochemical
Settings: table of enzyme assay Test (a)(ii); read-out: Test (a)(ii) IC50
Summary of the method: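 AlphaScreen read-out: biotinylated substrate phosphorylation was detected with anti-p70 S6K (T389) 1A5 antibody, Protein A acceptor and streptavidin donor beads after overnight dark incubation at room temperature. Enzyme was FLAG-mTOR 1362-2549 from stable HEK293 cells.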

T1 sequence (P42345 1362-2549): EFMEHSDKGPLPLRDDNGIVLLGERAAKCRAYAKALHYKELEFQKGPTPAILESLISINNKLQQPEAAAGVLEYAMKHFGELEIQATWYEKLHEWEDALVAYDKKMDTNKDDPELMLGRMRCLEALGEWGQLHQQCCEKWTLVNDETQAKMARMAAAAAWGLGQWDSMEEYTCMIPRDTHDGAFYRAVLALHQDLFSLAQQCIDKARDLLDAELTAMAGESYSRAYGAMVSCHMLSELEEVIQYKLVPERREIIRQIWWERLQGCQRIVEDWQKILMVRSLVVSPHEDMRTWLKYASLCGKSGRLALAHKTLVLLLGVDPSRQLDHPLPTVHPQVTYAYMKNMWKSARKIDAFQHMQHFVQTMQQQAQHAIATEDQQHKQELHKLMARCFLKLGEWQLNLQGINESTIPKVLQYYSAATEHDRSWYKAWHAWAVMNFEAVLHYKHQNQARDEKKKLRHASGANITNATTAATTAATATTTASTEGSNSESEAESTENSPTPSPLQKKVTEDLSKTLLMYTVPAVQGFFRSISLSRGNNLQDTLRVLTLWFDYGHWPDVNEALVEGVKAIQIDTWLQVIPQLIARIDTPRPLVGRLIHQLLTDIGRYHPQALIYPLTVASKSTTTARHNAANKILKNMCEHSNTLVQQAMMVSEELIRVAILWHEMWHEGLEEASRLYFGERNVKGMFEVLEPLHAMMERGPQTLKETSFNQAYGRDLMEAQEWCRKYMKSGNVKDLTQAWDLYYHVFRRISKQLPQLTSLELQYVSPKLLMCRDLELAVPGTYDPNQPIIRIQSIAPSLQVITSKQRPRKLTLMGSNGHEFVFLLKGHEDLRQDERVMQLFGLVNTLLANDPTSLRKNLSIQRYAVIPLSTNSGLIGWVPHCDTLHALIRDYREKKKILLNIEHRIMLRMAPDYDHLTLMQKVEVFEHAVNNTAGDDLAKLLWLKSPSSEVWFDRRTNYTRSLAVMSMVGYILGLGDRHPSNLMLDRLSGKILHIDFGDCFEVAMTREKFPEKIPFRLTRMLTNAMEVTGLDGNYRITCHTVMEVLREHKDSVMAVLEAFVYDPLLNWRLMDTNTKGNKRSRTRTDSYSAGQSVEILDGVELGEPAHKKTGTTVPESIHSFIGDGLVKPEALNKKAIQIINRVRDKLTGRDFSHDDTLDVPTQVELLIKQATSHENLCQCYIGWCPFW

Compound	IC50
CNC(=O)Nc1ccc(-c2nc(N3CCOC[C@@H]3C)cc(C3(S(=O)(=O)c4ccc(C)cc4)CC3)n2)cc1 [Example 95l, 3-methyl-1-[4-[4-[(3S)-3-methylmorpholin-4-yl]-6-[1-(4-methylphenyl)sulfonylcyclopropyl]pyrimidin-2-yl]phenyl]urea]	1.09 nM
Cc1ccc(S(=O)(=O)C2(c3cc(N4CCOC[C@@H]4C)nc(-c4ccc(NC(=O)NC5CC5)cc4)n3)CC2)cc1 [Example 95m, 3-cyclopropyl-1-[4-[4-[(3S)-3-methylmorpholin-4-yl]-6-[1-(4-methylphenyl)sulfonylcyclopropyl]pyrimidin-2-yl]phenyl]urea]	2.02 nM
Cc1ccc(S(=O)(=O)C2(c3cc(N4CCOC[C@@H]4C)nc(-c4ccc(NC(=O)NCCO)cc4)n3)CC2)cc1 [Example 95n, 3-(2-hydroxyethyl)-1-[4-[4-[(3S)-3-methylmorpholin-4-yl]-6-[1-(4-methylphenyl)sulfonylcyclopropyl]pyrimidin-2-yl]phenyl]urea]	0.668 nM
Cc1ccc(S(=O)(=O)C2(c3cc(N4CCOC[C@@H]4C)nc(-c4ccc(NC(=O)NCCF)cc4)n3)CC2)cc1 [Example 95o, 3-(2-fluoro-ethyl)-1-[4-[4-[(3S)-3-methylmorpholin-4-yl]-6-[1-(4-methylphenyl)sulfonylcyclopropyl]pyrimidin-2-yl]phenyl]urea]	4.73 nM
Cc1ccc(S(=O)(=O)C2(c3cc(N4CCOC[C@@H]4C)nc(-c4ccc(NC(=O)NCC(F)F)cc4)n3)CC2)cc1 [Example 95p, 3-(2,2-difluoroethyl)-1-[4-[4-[(3S)-3-methylmorpholin-4-yl]-6-[1-(4-methylphenyl)sulfonylcyclopropyl]pyrimidin-2-yl]phenyl]urea]	5.43 nM
CCNC(=O)Nc1ccc(-c2nc(N3CCOC[C@@H]3C)cc(C3(S(=O)(=O)c4ccc(C)cc4)CC3)n2)cc1 [Example 95q, 1-ethyl-3-[4-[4-[(3S)-3-methylmorpholin-4-yl]-6-[1-(4-methylphenyl)sulfonylcyclopropyl]pyrimidin-2-yl]phenyl]urea]	1.68 nM
Cc1ccc(S(=O)(=O)C2(c3cc(N4CCOC[C@@H]4C)nc(-c4ccc(NC(=O)Nc5cnn(C)c5)cc4)n3)CC2)cc1 [Example 95r, 1-[4-[4-[(3S)-3-methylmorpholin-4-yl]-6-[1-(4-methylphenyl)sulfonylcyclopropyl]pyrimidin-2-yl]phenyl]-3-(1-methylpyrazol-4-yl)urea]	6.31 nM

More lines, now with the values ahead:

IC50	Compound
17.7 nM	C[C@H]1COCCN1c1cc(C2(S(=O)(=O)CCCOC(F)F)CC2)nc(-c2ccc(NC(=O)NCCF)cc2)n1 [Example 96a, 1-[4-[4-[1-[3-(difluoromethoxy)propylsulfonyl]cyclopropyl]-6-[(3S)-3-methylmorpholin-4-yl]pyrimidin-2-yl]phenyl]-3-(2-fluoroethyl)urea]
26.8 nM	C[C@H]1COCCN1c1cc(C2(S(=O)(=O)CCCOC(F)F)CC2)nc(-c2ccc(NC(=O)NCC(F)F)cc2)n1 [Example 96b, 3-(2,2-difluoroethyl)-1-[4-[4-[1-[3-(difluoromethoxy)propylsulfonyl]cycloproyl]-6-[(3S)-3-methylmorpholin-4-yl]pyrimidin-2-yl]phenyl]urea]
27.2 nM	CCNC(=O)Nc1ccc(-c2nc(N3CCOC[C@@H]3C)cc(C3(S(=O)(=O)CCCOC(F)F)CC3)n2)cc1 [Example 96c, 1-[4-[4-[1-[3-(difluoromethoxy)propylsulfonyl]cyclopropyl]-6-[(3S)-3-methylmorpholin-4-yl]pyrimidin-2-yl]phenyl]-3-ethylurea]
20.9 nM	C[C@H]1COCCN1c1cc(C2(S(=O)(=O)CCCOC(F)F)CC2)nc(-c2ccc(NC(=O)Nc3cnn(C)c3)cc2)n1 [Example 96d, 1-[4-[4-[1-[3-(difluoromethoxy)propylsulfonyl]cyclopropyl]-6-[(3S)-3-methylmorpholin-4-yl]pyrimidin-2-yl]phenyl]-3-(1-methylpyrazol-4-yl)urea]
